# Measured values from US9314026B2, “Heterocyclylpyri(mi)dinylpyrazole” (Bayer Intellectual Property GmbH, priority 2011, dated 2016).
# Read-outs that look alike come from different tables or passages of the source.
# Assay: determination of the log P values by HPLC on a reverse phase column (C18), EEC-Directive 79/831 Annex V.A8
# Assay type: physicochemical
# Experimental: Method A Note on the determination of the log P values and mass detection: The stated log P values were determined in accordance with EEC-Directive 79/831 Annex V.A8 by HPLC (High Performance Liquid Chromatography) on a reverse phase column (C18). […] The mass detection was effected with an […] system. Method B Note on the determination of the log P values and mass detection: The stated log P values were determined in accordance with EEC-Directive 79/831 Annex V.A8 by HPLC (High Performance Liquid Chromatography) on a reverse phase column (C18). […] The mass detection was effected with the Micronass ZQ2000 mass detector from Waters. Method C Note on the determination of the log P values and mass detection: The stated log P values were determined in accordance with EEC-Directive 79/831 Annex V.A8 by UPLC (Ultra Performance Liquid Chromatography) on a reverse phase column (C18). […] The mass detection was effected with the LCT Premier or SQD mass detector from Waters.
Molecule,chromatographic logP (pH 2.3),also measured
"CC1(C)OB(c2c(-c3ccc(F)c(F)c3)nn3c2CCC3)OC1(C)C [[III-2], 2-(3,4-difluorophenyl)-3-(4,4,5,5-tetramethyl-1,3,2-dioxaborolan-2-yl)-5,6-dihydro-4H-pyrrolo[1,2-b]pyrazole]",–,chromatographic logP (pH 2.7): 4.3
"Fc1ccc(-c2cc3n(n2)CCC3)cc1F [[VI-2], 2-(3,4-difluorophenyl)-5,6-dihydro-4H-pyrrolo[1,2-b]pyrazole]",2.69,chromatographic logP (pH 2.7): 2.69
"CS(=O)(=O)OCCCc1cc(-c2ccc(F)cc2)n[nH]1 [[VII-1], 3-[3-(4-fluorophenyl)-1H-pyrazol-5-yl]propyl methanesulfonate]",–,chromatographic logP (pH 2.7): 2
"CCC(=O)N(C(=O)CC)c1cc(-c2c(-c3ccc(F)cc3)nn3c2CCCC3)ccn1 [Example 18, N-{4-[2-(4-fluorophenyl)-4,5,6,7-tetrahydropyrazolo[1,5-a]pyridin-3-yl]pyridin-2-yl}-N-propionylpropanamide]",–,chromatographic logP: 3.18
"O=C(CCCCO)CC(=O)c1ccc(F)cc1 [[XIII-4], 1-(4-fluorophenyl)-7-hydroxyheptane-1,3-dione]",–,chromatographic logP (pH 2.7): 2.3
"3-iodo-5-methyl-2-phenyl-5,6-dihydro-4H-pyrrolo[1,2-b]pyrazole [[IV-7]]",–,"LogP (pH 2.3) (pH 2.3, compounds of the type [IV]): 3.74; log P (pH 2.5) (pH 2.5, preparation examples in the text): 3.74"
"Nc1cc(-c2c(-c3ccc(F)cc3)nn3c2CCC3)ccn1 [[II-1], 4-[2-(4-fluorophenyl)-5,6-dihydro-4H-pyrrolo[1,2-b]pyrazol-3-yl]pyridin-2-amine]",1.02,chromatographic logP (pH 2.7): 1.02
"O=C(Nc1cc(-c2c(-c3ccc(F)cc3)nn3c2CCC3)ccn1)C1CC1 [[XI-4], N-{4-[2-(4-fluorophenyl)-5,6-dihydro-4H-pyrrolo[1,2-b]pyrazol-3-yl]pyridin-2-yl}cyclopropanecarboxamide]",1.73,–
"CS(=O)(=O)OCCCc1cc(-c2ccc(F)c(F)c2)n[nH]1 [[VII-3], 3-[3-(3,4-difluorophenyl)-1H-pyrazol-5-yl]propyl methanesulfonate]",–,chromatographic logP (pH 2.7): 2.17
"Nc1cc(-c2c(-c3ccc(F)c(Cl)c3)nn3c2CCC3)ccn1 [[II-2], 4-[2-(3-chloro-4-fluorophenyl)-5,6-dihydro-4H-pyrrolo[1,2-b]pyrazol-3-yl]pyridin-2-amine]",1.28,chromatographic logP (pH 2.7): 1.28
"CCC(=O)N(C(=O)CC)c1cc(-c2c(-c3ccc(F)cc3)nn3c2CCC3C)ccn1 (centres unmarked) [Example 16, N-{4-[2-(4-fluorophenyl)-6-methyl-5,6-dihydro-4H-pyrrolo[1,2-b]pyrazol-3-yl]pyridin-2-yl}-N-propionylpropanamide]",–,chromatographic logP: 3.21
"Nc1cc(-c2c(-c3ccc(F)c(F)c3)nn3c2CCC3)ccn1 [[II-3], 4-[2-(3,4-difluorophenyl)-5,6-dihydro-4H-pyrrolo[1,2-b]pyrazol-3-yl]pyridin-2-amine]",1.08,chromatographic logP (pH 2.7): 1.08
"Fc1ccc(-c2cc3n(n2)CCC3)cc1Cl [[VI-3], 2-(3-chloro-4-fluorophenyl)-5,6-dihydro-4H-pyrrolo[1,2-b]pyrazole]",3.07,chromatographic logP (pH 2.7): 3.07
"COCC(=O)Nc1cc(-c2c(-c3ccccc3)nn3c2C(C)CC3)ccn1 (centres unmarked) [[XI-5], 2-methoxy-N-[4-(4-methyl-2-phenyl-5,6-dihydro-4H-pyrrolo[1,2-b]pyrazol-3-yl)pyridin-2-yl]acetamide]",2.22,–
"CCC1CCc2c(-c3ccnc(NC(C)=O)c3)c(-c3ccc(F)cc3)nn21 (centres unmarked) [[XI-6], N-{4-[6-ethyl-2-(4-fluorophenyl)-5,6-dihydro-4H-pyrrolo[1,2-b]pyrazol-3-yl]pyridin-2-yl}acetamide]",1.96,–
"Fc1ccc(-c2nn3c(c2Br)CCC3)cc1Cl [[IV-3], 3-bromo-2-(3-chloro-4-fluorophenyl)-5,6-dihydro-4H-pyrrolo[1,2-b]pyrazole]",4.01,chromatographic logP (pH 2.5): 4.01
"CC1CCn2nc(-c3ccccc3)c(I)c21 (centres unmarked) [[IV-4], 3-iodo-4-methyl-2-phenyl-5,6-dihydro-4H-pyrrolo[1,2-b]pyrazole]",3.56,chromatographic logP (pH 2.5): 3.56
"Fc1ccc(-c2nn3c(c2Br)CCC3)cc1 [[IV-1], 3-bromo-2-(4-fluorophenyl)-5,6-dihydro-4H-pyrrolo[1,2-b]pyrazole]",3.21,chromatographic logP (pH 7): 3.21
"COC(=O)N(C(=O)C1CC1)c1cc(-c2c(-c3ccc(F)cc3)nn3c2CCC3)ccn1 [Example 15, methyl (cyclopropylcarbonyl){4-[2-(4-fluorophenyl)-5,6-dihydro-4H-pyrrolo[1,2-b]pyrazol-3-yl]pyridin-2-yl}carbamate]",–,chromatographic logP: 2.54

# The next lines start with results.
chromatographic logP (pH 2.3),Molecule,also measured
2.74,"CCC(=S)Nc1cc(-c2c(-c3ccc(F)cc3)nn3c2CCC3)ccn1 [[XI-9], N-{4-[2-(4-fluorophenyl)-5,6-dihydro-4H-pyrrolo[1,2-b]pyrazol-3-yl]pyridin-2-yl}propanethioamide]",–
1.91,"CCC(=O)Nc1cc(-c2c(-c3ccc(F)cc3)nn3c2CC(C)C3)ccn1 (centres unmarked) [[XI-7], N-{4-[2-(4-fluorophenyl)-5-methyl-5,6-dihydro-4H-pyrrolo[1,2-b]pyrazol-3-yl]pyridin-2-yl}propanamide]",–
2.36,"CC1Cc2c(-c3ccnc(NC(=O)CC4CC4)c3)c(-c3ccc(F)cc3)nn2C1 (centres unmarked) [[XI-22], 2-cyclopropyl-N-{4-[2-(4-fluorophenyl)-5-methyl-5,6-dihydro-4H-pyrrolo[1,2-b]pyrazol-3-yl]pyridin-2-yl}acetamide]",–
2.08,"O=C(Nc1cc(-c2c(-c3ccc(F)cc3)nn3c2CCC3)ccn1)C1CCC1 [[XI-14], N-{4-[2-(4-fluorophenyl)-5,6-dihydro-4H-pyrrolo[1,2-b]pyrazol-3-yl]pyridin-2-yl}cyclobutanecarboxamide]",–
2.2,"CC(C)CC(=O)Nc1cc(-c2c(-c3ccc(F)cc3)nn3c2CCC3)ccn1 [[XI-15], N-{4-[2-(4-fluorophenyl)-5,6-dihydro-4H-pyrrolo[1,2-b]pyrazol-3-yl]pyridin-2-yl}-3-methylbutanamide]",–
1.97,"CC(C)C(=O)Nc1cc(-c2c(-c3ccc(F)cc3)nn3c2CCC3)ccn1 [[XI-8], N-{4-[2-(4-fluorophenyl)-5,6-dihydro-4H-pyrrolo[1,2-b]pyrazol-3-yl]pyridin-2-yl}-2-methylpropanamide]",–
1.77,"O=C(Nc1cc(-c2c(-c3ccc(F)cc3)nn3c2CCC3)ccn1)C1CCOCC1 [[XI-27], N-{4-[2-(4-fluorophenyl)-5,6-dihydro-4H-pyrrolo[1,2-b]pyrazol-3-yl]pyridin-2-yl}tetrahydro-2H-pyran-4-carboxamide]",–
2.08,"O=C(CC1CC1)Nc1cc(-c2c(-c3ccc(F)cc3)nn3c2CCC3)ccn1 [[XI-13], 2-cyclopropyl-N-{4-[2-(4-fluorophenyl)-5,6-dihydro-4H-pyrrolo[1,2-b]pyrazol-3-yl]pyridin-2-yl}acetamide]",–
2.32,"CC1CCn2nc(-c3ccccc3)c(-c3ccnc(NC(=O)CC4CC4)c3)c21 (centres unmarked) [[XI-11], 2-cyclopropyl-N-[4-(4-methyl-2-phenyl-5,6-dihydro-4H-pyrrolo[1,2-b]pyrazol-3-yl)pyridin-2-yl]acetamide]",–
1.5,"OCCCc1cc(-c2ccc(F)cc2)n[nH]1 [[XIV-1], 3-[3-(4-fluorophenyl)-1H-pyrazol-5-yl]propan-1-ol]",chromatographic logP (pH 2.7): 1.51
2.23,"CCC(C)C(=O)Nc1cc(-c2c(-c3ccc(F)cc3)nn3c2CCC3)ccn1 (centres unmarked) [[XI-17], N-{4-[2-(4-fluorophenyl)-5,6-dihydro-4H-pyrrolo[1,2-b]pyrazol-3-yl]pyridin-2-yl}-2-methylbutanamide]",–
2.4,"O=C(CC1CC1)Nc1cc(-c2c(-c3csc(Cl)c3)nn3c2CCC3)ccn1 [[XI-25], N-{4-[2-(5-chloro-3-thienyl)-5,6-dihydro-4H-pyrrolo[1,2-b]pyrazol-3-yl]pyridin-2-yl}-2-cyclopropylacetamide]",–
1.69,"O=C(Nc1cc(-c2c(-c3ccc(F)cc3)nn3c2CCC3)ccn1)C1CCOC1 (centres unmarked) [[XI-24], N-{4-[2-(4-fluorophenyl)-5,6-dihydro-4H-pyrrolo[1,2-b]pyrazol-3-yl]pyridin-2-yl}tetrahydrofuran-3-carboxamide]",–
2.24,"CC(C)C(=O)Nc1cc(-c2c(-c3csc(Cl)c3)nn3c2CCC3)ccn1 [[XI-21], N-{4-[2-(5-chloro-3-thienyl)-5,6-dihydro-4H-pyrrolo[1,2-b]pyrazol-3-yl]pyridin-2-yl}-2-methylpropanamide]",–
1.72,"CCC(=O)Nc1cc(-c2c(-c3ccc(F)cc3)nn3c2C(OC)CC3)ccn1 (centres unmarked) [[XI-19], N-{4-[2-(4-fluorophenyl)-4-methoxy-5,6-dihydro-4H-pyrrolo[1,2-b]pyrazol-3-yl]pyridin-2-yl}propanamide]",–
1.93,"CCC(=O)Nc1cc(-c2c(-c3ccc(F)c(F)c3)nn3c2CCC3)ccn1 [[XI-10], N-{4-[2-(3,4-difluorophenyl)-5,6-dihydro-4H-pyrrolo[1,2-b]pyrazol-3-yl]pyridin-2-yl}propanamide]",–
2.62,"O=C(CCc1ccccc1)Nc1cc(-c2c(-c3ccc(F)cc3)nn3c2CCC3)ccn1 [[XI-28], N-{4-[2-(4-fluorophenyl)-5,6-dihydro-4H-pyrrolo[1,2-b]pyrazol-3-yl]pyridin-2-yl}-3-phenylpropanamide]",–
2.3,"COCC(=O)Nc1cc(-c2c(-c3ccc(F)cc3)nn3c2CC(C)C3)ccn1 (centres unmarked) [[XI-18], N-{4-[2-(4-fluorophenyl)-5-methyl-5,6-dihydro-4H-pyrrolo[1,2-b]pyrazol-3-yl]pyridin-2-yl}-2-methoxyacetamide]",–
